Data reported in paper PMC10079954, “Rational design of phase separating peptides based on phase separating protein sequence of p53” (Scientific Reports, 2023).

Assay: Single-molecule fluorescence tracking (HILO) of labeled molecules in their droplets
Assay type: physicochemical
Conditions: Alexa488-labeled peptide 10–100 pM in 0.9 mM non-labeled peptide droplets; 25 mM HEPES, 0.5 mM EDTA, 45 mM NaCl, 150 mg/mL dextran, pH 7.0; linear fit of MSD (4D slope)
Protocol: We quantitatively characterized the liquid droplet properties of the four designed peptides and compared them with those of p53. We measured the fusion of the designed peptide droplets in the solution used for p53 droplets (Supplementary Fig. S4). In the presence of 45 mM NaCl and 150 mg/mL dextran, the fusion of droplets for the four designed peptides was observed within 0.2 s, which was much faster than that for p53 (3.7 min)[8]. This gap in the fusion period implies different intrinsic dynamic properties. We measured the movement of Alexa488-labeled peptides within non-labeled peptide droplets using single-molecule fluorescence microscopy with a highly inclined and laminated optical sheet (HILO) illumination[37],[41] (Fig. 3A). […]
Single-molecule measurements were performed following the method described in our previous studies[37],[41]. An inverted fluorescence microscope (IX-73; Olympus) with a total internal reflection fluorescence unit (IX3RFAEVAW; Olympus) was used[52],[53]. […] The fluorescence collected via the objective lens was detected using an EM-CCD camera (iXon Ultra 888, Andor). […] Images were recorded at intervals of 15–154 ms after reducing the number of observable molecules in the droplets by photobleaching within one minute. […]

Average diffusion coefficient (D) in own droplets: 2.03 ± 0.06 μm^2/s
Sequence: RRRVVQRRRRGGGSGGGSGGGSDDDASQEDDD [DPp53N-(GGGS)3-DPp53C1]
